The results in this text go back to patent US20100105610A1, “Methods of Inhibiting Tumor Cell Aggressiveness Using the Microenvironment of Human Embryonic Stem Cells” (CHILDREN'S MEMORIAL HOSPITAL, priority 2006, published 2010).

One series relates to Nodal. In words: Nodal protein expression, Western blot. It counts as cell-based, human. To be noted: after administration of anti-Nodal Morpholino. As for the experimental part:
(§1) Protein lysates were prepared and quantified as previously described in Hess et al., 2001, Cancer Res. 61:3250-3255. Equal amounts of protein were separated by SDS-polyacrylamide gel electrophoresis under reducing conditions, and the resolved proteins were transferred onto Immobilon-P membranes (Millipore Corp., Bedford, Mass.). Membranes were blocked in 1% TBS, 0.1% Tween 20 (TBS-T) and 5% dry milk powder or 3% gelatin (for Nodal Westerns). Blots were incubated with anti-Nodal or anti-Lefty antibodies (Polyclonal rabbit anti-Nodal (H-110) 1:500 Santa Cruz Biotechnology, Santa Cruz, Calif.; Polyclonal goat anti-Lefty 1:500 R&D Systems, Minneapolis, Minn.), washed in TBS-T, and incubated with the appropriate horseradish peroxidase-labeled secondary antibody. Secondary antibodies were detected by enhanced chemiluminescence (Super Signal; Pierce, Rockford, Ill.) and exposure to autoradiography film (Molecular Technologies, St Louis, Mo.). Nodal protein was detected as two major bands at ˜48 and ˜35 kDa representing precursor and pro-Nodal respectively. Nodal often appeared as multiple bands, likely due to degradation of protein modifications. All experiments were done at least three times.
Conditioned matrices were prepared using hESCs, melanocytes, myoepithelial cells, amniotic fluid derived stem cells, or trophoblast cells on growth factor-reduced Matrigel (14 mg/mL; BD Biosciences) as previously described. Postovit et al., 2006, Stem Cells 24: 501-505. In all cases, cells were 80-100% confluent during the conditioning of the matrix. Alternatively, hESC-derived Lefty protein was seeded into Matrigel prior to polymerization. Human melanoma (C8161) or breast carcinoma (MDA-MB-231) cells, 2.5×10^5 cells/6-well dish, were subsequently exposed to this preconditioned matrix for 3 to 4 days.
as §1, with “primary antibody (Table 2),” for “anti-Nodal or anti-Lefty antibodies (Polyclonal rabbit anti-Nodal (H-110) 1:500 Santa Cruz Biotechnology, Santa Cruz, Calif.; Polyclonal goat anti-Lefty 1:500 R&D Systems, Minneapolis, Minn.),”, “TBS-T or TBS-T containing 0.5M NaCl for the Nodal Westerns,” for “TBS-T,”, “Nodal often appeared as multiple bands, likely due to degradation of protein modifications. All experiments were done at least three times.” left out

Series [1] concerns MDA-MB-231 breast carcinoma cells. In words: In vivo tumor formation, MDA-MB-231 cells injected into the mammary fat pad. Also on record: species or system mouse. To be noted: 500,000 Morpholino-treated MDA-MB-231 cells injected, vs control. The source says: The effects of the hESC microenvironment on the in vivo tumorigenicity of melanoma and breast carcinoma cells were examined using orthotopic mouse models. […] In order to further substantiate the role of Nodal in tumorigenicity, and to illuminate a potential mechanism for the tumor-suppressive properties of the hESC microenvironment, previously shown to diminish Nodal expression (FIG. 9), orthotopic mouse models were utilized to examine the effects of: (a) Ectopic Nodal expression on the tumorigenic potential of C81-61 cells (isogenetically matched non-tumorigenic variants of the metastatic C8161 melanoma cell line); and (b) Nodal inhibition on MDA-MB-231 breast carcinoma tumorigenicity. The control C81-61 melanoma cell line was unable to form palpable tumors when 500,000 cells were injected, and using gross observation and histology 5.5 weeks after inoculation, these tumor cells could not be detected at the site of injection. In contrast, 100% of C81-61 cells transfected with a Nodal expression vector formed palpable tumors within 3.5 weeks of injection (FIG. 13B).
5 week old mice were injected subcutaneously with 250,000 C8161 or 500,000 C81-61 human cutaneous melanoma cells in 50 μL of complete RPMI; or 500,000 MDA-MB-231 cells in 50 μL of complete RPMI were injected into the mammary fat pad of 8 week old mice. When tumors became palpable measurements were taken twice per week.

Series [2] shares this test system. Kind of series: In vivo tumor cell proliferation-to-apoptosis ratio (Ki67 / TUNEL), MDA-MB-231 tumors. As to conditions: MDA-MB-231 cells treated prior to injection into mouse. The source says: (A) In vivo tumor formation in a mouse injected with MDA-MB-231 cells pre-exposed for 3 days to either a control matrix (Matrigel) or a matrix conditioned by hESCs (H9 CMTX) (n=10) (B) C81-61 cells, transfected with either an empty vector or a Nodal expression construct (n=5), and (C) MDA-MB-231 cells treated with either MO^Control or MO^Nodal (n=10). […] (D) The ratio of tumor cell proliferation to apoptosis for C8161 and MDA-MB-231 derived tumors, determined by immunohistochemical staining for Ki67 and terminal deoxynucleotidyl transferase biotin-dUTP nick-end labeling (TUNEL). Prior to injection into a mouse, C8161 and MDA-MB-231 cells were cultured for 3 days on control or hESC conditioned (H9 CMTX) matrices, or treated with MO^Nodal to knock down Nodal expression. […] (E) Immunohistochemical analysis of Ki67 expression (red/brown) and TUNEL staining in orthotopic melanoma (C8161) and breast carcinoma (MDA-MB-231) tumors. […] Proliferation is indicated by Ki67 staining and apoptotic nuclei were detected with confocal microscopy as red staining localized to the nuclei of apoptotic C8161 or MDA-MB-231 cells. […]
In order to establish a mechanism by which exposure to the hESC microenvironment abrogates tumorigenicity, the effects of this treatment on the in vivo tumor cell proliferation-to-apoptosis ratio were analyzed. […]

Take “MO^Nodal: antisense Morpholino to Nodal, 5′-AAGCAGCACCTCCAGCCCTTATATC-3′ (SEQ ID NO: 20) (all phosphorodiamidate morpholino (PMO); further chemistry not fully specified)”: the Nodal expression result in the series on Nodal is given as “down-regulation”. In series [1], the tumorigenicity entry is on record as “significant reduction”. Besides, the “ratio of proliferation to apoptosis” value in series [2] is “decreased”.
